Source: paper PMC3949708, “Identification and Biosynthesis of a Novel Xanthomonadin-Dialkylresorcinol-Hybrid from Azoarcus sp. BH72” (PLoS ONE, 2014)

What was measured:
ArcB = target: T1, ArcB (Azoarcus olearius, UniProt A1KCI0); assay: GC-MS product detection after MSTFA derivatization; format: biochemical; conditions: 1 mM substrate, 2 µg ArcB, 100 mM Tris pH 7.4, 37 °C, 10 or 60 min
T1 construct: gene azo3920; full gene; CherryTag-His6 fusion cut off with TEV protease; E. coli BL21 (DE3) Star
T1 sequence (A1KCI0 entry or part of it): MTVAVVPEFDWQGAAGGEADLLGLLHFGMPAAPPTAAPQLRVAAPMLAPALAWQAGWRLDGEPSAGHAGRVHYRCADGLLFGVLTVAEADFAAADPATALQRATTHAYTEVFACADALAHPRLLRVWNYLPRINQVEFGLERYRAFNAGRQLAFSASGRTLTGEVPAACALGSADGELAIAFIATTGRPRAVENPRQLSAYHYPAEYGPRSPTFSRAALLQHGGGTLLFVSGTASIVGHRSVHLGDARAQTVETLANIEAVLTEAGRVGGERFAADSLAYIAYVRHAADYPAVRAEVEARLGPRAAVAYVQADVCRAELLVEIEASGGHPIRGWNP

ArcT = target: T2, ArcT (Azoarcus olearius, UniProt A1K222); assay: MALDI-MS ATP-pyrophosphate isotopic exchange; format: biochemical; conditions: MgCl2, pyrophosphate, 20 mM Tris pH 7.4
T2 construct: gene azo0260; full gene; CherryTag-His6 fusion cut off with TEV protease; E. coli BL21 (DE3) Star
T2 sequence (A1K222 entry or part of it): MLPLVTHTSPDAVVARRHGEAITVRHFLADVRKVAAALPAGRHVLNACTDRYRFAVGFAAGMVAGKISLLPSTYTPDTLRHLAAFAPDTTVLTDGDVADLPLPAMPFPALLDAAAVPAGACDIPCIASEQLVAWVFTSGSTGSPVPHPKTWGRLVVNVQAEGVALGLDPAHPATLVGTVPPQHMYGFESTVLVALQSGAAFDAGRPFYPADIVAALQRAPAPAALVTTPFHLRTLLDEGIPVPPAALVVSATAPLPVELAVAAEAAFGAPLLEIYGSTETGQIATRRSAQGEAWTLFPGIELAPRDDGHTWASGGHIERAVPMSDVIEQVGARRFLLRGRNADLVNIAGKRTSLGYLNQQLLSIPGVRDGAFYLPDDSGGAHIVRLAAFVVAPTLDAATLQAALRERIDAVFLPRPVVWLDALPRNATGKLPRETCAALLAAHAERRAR

O=C(O)c1cccc(O)c1 [3-hydroxybenzoic acid]
GC-MS product detection after MSTFA derivatization (ArcB; formed from chorismic acid): 3-HBA was only detectable in assays containing ArcB | MALDI-MS ATP-pyrophosphate isotopic exchange (ArcT; adenylation, [γ-18O4]-ATP): MALDI-MS analysis showed ATP-label exchange in assays with 3-HBA

Nc1ncnc2c1ncn2[C@@H]1O[C@H](COP(=O)(O)OP(=O)(O)OP(=O)(O)O)[C@@H](O)[C@H]1O [[γ-^18O4]-ATP]
MALDI-MS ATP-pyrophosphate isotopic exchange (ArcT; 3-HBA as co-substrate, labelled compound): MALDI-MS analysis showed ATP-label exchange in assays with 3-HBA

C=C(O[C@@H]1C=C(C(=O)O)C=C[C@H]1O)C(=O)O [chorismic acid]
GC-MS product detection after MSTFA derivatization (ArcB): 3-HBA was only detectable in assays containing ArcB
